Read-outs that look alike come from different tables or passages of the source.
What was measured:
Assay type in all cases: biochemical
[1] = molecular target: T1, Itk (Homo sapiens, UniProt Q08881); assay: Kinase inhibition assay (33P transfer), Itk; conditions: read-out: Itk-1
T1 construct: Kinases are expressed as either kinase domains or full length constructs; made in house
T1 sequence (Q08881 1-620): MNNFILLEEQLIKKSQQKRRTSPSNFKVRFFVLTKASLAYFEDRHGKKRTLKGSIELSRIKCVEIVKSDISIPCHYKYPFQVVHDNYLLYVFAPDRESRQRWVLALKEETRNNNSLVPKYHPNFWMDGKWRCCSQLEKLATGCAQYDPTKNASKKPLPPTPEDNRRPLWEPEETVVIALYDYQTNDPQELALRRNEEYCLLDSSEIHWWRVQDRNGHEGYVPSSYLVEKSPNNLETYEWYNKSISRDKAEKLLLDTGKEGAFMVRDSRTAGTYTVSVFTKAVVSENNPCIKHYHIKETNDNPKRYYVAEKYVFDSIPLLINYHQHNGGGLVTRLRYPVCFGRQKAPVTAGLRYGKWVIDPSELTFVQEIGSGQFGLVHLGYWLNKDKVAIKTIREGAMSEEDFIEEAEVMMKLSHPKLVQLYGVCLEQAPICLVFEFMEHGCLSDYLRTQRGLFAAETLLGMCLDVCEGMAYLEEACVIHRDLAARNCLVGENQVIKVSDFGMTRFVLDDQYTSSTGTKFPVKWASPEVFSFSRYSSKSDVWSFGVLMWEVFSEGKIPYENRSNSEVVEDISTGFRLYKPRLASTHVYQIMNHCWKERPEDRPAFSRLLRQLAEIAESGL
Summary of the method: (§1)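 Recombinant kinase domains or full-length GST- or His-tagged constructs, from E. coli or baculovirus/High Five cells, sometimes with regulatory polypeptides. Transfer of 33P from ATP to plate-bound poly(Glu,Tyr) 4:1 or poly(Arg,Ser) 3:1 counted by liquid scintillation after phosphoric acid wash; IC50 is the concentration halving incorporation.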

[2] = molecular target: T2, c-Met (Homo sapiens, UniProt P08581); assay: Kinase inhibition assay (33P transfer), c-Met; conditions: Table 2, kinase inhibition class; read-out: Met-1
T2 construct: Kinases are expressed as either kinase domains or full length constructs; made in house
T2 sequence (P08581 25-1390): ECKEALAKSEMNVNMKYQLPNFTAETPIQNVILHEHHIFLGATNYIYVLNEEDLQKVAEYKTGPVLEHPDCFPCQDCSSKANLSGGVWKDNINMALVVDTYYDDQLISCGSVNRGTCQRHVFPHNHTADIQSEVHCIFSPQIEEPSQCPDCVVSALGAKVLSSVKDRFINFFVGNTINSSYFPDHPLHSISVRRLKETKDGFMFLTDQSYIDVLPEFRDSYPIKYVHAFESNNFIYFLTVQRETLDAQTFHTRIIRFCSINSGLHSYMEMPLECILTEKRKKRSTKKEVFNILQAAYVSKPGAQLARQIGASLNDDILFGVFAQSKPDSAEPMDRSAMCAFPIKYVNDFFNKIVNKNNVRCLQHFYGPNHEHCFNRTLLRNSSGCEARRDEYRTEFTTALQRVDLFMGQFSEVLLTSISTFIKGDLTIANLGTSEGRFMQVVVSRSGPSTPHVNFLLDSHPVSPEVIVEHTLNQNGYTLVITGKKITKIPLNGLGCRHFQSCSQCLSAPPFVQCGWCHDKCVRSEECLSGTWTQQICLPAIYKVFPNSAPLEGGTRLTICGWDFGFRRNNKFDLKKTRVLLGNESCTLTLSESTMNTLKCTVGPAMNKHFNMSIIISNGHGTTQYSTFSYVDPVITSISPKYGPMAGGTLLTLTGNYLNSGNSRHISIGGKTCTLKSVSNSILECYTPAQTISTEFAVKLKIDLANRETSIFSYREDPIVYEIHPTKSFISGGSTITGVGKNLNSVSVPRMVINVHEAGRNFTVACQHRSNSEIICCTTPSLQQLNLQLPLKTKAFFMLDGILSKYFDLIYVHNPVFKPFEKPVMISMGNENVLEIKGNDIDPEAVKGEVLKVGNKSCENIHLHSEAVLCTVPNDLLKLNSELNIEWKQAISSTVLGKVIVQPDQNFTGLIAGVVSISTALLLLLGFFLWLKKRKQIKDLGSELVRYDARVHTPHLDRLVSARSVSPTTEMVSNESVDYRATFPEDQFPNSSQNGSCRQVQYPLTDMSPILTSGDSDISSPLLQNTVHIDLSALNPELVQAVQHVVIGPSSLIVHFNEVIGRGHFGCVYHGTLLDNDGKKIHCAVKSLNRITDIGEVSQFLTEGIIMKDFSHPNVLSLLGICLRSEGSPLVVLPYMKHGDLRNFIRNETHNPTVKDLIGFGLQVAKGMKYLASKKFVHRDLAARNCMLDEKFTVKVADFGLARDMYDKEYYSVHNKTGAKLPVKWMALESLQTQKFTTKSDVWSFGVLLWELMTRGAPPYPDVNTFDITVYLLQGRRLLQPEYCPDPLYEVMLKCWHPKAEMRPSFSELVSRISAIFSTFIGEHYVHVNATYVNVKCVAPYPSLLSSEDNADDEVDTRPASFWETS
Summary of the method: as §1

[3] = molecular target: T3, Zap-70 (Homo sapiens, UniProt P43403); assay: Kinase inhibition assay (33P transfer), Zap-70; conditions: read-out: Zap-1
T3 construct: Kinases are expressed as either kinase domains or full length constructs; made in house
T3 sequence (P43403 1-619): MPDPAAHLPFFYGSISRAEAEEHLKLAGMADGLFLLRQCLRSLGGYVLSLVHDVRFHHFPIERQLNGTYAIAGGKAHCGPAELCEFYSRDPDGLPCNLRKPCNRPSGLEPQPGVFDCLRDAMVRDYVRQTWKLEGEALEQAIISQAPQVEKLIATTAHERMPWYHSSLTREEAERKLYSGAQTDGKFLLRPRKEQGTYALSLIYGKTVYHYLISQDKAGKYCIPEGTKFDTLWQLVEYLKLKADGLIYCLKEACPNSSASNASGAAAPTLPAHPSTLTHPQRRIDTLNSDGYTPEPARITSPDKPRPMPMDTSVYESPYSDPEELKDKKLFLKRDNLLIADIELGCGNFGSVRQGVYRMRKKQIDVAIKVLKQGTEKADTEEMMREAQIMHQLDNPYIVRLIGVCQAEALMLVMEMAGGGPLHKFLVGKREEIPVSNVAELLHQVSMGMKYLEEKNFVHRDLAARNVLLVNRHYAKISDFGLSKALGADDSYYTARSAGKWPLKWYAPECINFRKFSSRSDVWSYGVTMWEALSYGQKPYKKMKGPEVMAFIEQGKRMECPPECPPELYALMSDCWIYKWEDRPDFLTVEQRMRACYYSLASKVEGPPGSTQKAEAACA
Summary of the method: (§2)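 Activity was read as 33P incorporation, counted by liquid scintillation after a 0.5% phosphoric acid wash, into poly(Glu,Tyr) 4:1 or poly(Arg,Ser) 3:1 substrates coated on plates. Enzymes were tagged (GST or polyHis) kinase domains or full-length proteins from bacterial or insect-cell expression, sometimes with regulatory polypeptides.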

[4] = molecular target: T4, Tek (Homo sapiens, UniProt Q02763); assay: Kinase inhibition assay (33P transfer), Tek; conditions: read-out: Tek-1
T4 construct: Kinases are expressed as either kinase domains or full length constructs; made in house
T4 sequence (Q02763 23-1124, species assumed): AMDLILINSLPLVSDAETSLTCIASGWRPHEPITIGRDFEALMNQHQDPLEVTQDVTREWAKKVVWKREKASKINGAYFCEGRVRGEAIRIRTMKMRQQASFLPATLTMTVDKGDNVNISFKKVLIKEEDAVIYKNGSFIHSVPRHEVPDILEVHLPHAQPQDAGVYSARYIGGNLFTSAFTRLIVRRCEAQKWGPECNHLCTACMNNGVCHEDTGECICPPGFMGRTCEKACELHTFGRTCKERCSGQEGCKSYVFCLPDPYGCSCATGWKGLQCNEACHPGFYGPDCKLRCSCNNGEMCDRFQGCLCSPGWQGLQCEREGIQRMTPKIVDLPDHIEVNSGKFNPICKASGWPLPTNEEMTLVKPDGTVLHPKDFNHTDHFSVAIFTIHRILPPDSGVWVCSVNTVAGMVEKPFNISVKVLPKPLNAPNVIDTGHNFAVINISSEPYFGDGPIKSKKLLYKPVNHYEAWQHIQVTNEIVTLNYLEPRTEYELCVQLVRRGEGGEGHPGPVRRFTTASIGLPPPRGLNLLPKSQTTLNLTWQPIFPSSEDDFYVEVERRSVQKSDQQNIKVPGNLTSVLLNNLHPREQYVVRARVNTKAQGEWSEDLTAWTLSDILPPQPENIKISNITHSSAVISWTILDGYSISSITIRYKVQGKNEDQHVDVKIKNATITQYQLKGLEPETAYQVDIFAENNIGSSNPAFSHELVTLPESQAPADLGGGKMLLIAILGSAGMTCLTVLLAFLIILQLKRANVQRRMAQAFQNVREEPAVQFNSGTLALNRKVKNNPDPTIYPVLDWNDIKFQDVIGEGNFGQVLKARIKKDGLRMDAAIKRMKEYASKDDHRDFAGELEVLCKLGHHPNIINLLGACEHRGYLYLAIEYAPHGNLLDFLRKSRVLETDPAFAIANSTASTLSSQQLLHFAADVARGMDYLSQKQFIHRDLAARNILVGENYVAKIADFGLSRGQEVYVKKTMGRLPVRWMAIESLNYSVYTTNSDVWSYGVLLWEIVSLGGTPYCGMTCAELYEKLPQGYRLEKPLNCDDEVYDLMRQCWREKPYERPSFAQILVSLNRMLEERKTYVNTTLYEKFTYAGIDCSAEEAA
Description: The inhibitor compounds described herein are screened in the following manner. Kinases suitable for use in the following protocol to determine kinase activity of the compounds described herein include, -but are not limited to: Lck, Lyn, Src, Fyn, Syk, Zap-70, Itk, Tec, Btk, EGFR, ErbB2, Kdr, Flt-1, Flt-3, Tek, c-Met, InsR, and AKT.
Kinases are expressed as either kinase domains or full length constructs fused to glutathione S-transferase (GST) or polyHistidine tagged fusion proteins in either E. colior Baculovirus-High Five expression systems. They are purified to near homogeneity by affinity chromatography essentially as previously described (Lehr et al., 1996; Gish et al., 1995). In some instances, kinases are co-expressed or mixed with purified or partially purified regulatory polypeptides prior to measurement of activity.
Kinase activity and inhibition are measured essentially by established protocols (Braunwalder et al., 1996). Briefly, The transfer of ^33PO4 from ATP to the synthetic substrates poly(Glu, Tyr) 4:1 or poly(Arg, Ser) 3:1 attached to the bioactive surface of microtiter plates serves as the basis to evaluate enzyme activity. After an incubation period, the amount of phosphate transferred is measured by first washing the plate with 0.5% phosphoric acid, adding liquid scintillant, and then counting in a liquid scintillation detector. The IC50 is determined by the concentration of compound that causes a 50% reduction in the amount of […] incorporated onto the substrate bound to the plate.

[5] = molecular target: T5, AKT (Homo sapiens, UniProt Q9Y243); assay: Kinase inhibition assay (33P transfer), AKT; conditions: Table 2, kinase inhibition class; read-out: AKT3-1
T5 construct: Kinases are expressed as either kinase domains or full length constructs; made in house
T5 sequence (Q9Y243 whole entry, the tested form may be a part): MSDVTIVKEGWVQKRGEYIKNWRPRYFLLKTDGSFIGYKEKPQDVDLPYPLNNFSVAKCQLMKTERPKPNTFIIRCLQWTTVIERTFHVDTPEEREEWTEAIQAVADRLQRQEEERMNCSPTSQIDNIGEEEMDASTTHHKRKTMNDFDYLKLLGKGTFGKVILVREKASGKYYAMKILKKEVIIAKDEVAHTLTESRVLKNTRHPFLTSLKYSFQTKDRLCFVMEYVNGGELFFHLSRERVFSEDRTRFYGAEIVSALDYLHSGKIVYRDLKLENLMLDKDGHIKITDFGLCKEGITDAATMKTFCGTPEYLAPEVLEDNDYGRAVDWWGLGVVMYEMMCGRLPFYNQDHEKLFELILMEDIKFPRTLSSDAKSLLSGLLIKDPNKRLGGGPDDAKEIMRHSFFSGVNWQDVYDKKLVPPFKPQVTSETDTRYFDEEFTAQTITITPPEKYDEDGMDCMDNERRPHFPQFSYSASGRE
Summary of the method: as §2

[6] = molecular target: T6, Lck (Homo sapiens, UniProt P06239); assay: Kinase inhibition assay (33P transfer), Lck; conditions: read-out: Lck-1
T6 construct: Kinases are expressed as either kinase domains or full length constructs; made in house
T6 sequence (P06239 whole entry, species assumed, the tested form may be a part): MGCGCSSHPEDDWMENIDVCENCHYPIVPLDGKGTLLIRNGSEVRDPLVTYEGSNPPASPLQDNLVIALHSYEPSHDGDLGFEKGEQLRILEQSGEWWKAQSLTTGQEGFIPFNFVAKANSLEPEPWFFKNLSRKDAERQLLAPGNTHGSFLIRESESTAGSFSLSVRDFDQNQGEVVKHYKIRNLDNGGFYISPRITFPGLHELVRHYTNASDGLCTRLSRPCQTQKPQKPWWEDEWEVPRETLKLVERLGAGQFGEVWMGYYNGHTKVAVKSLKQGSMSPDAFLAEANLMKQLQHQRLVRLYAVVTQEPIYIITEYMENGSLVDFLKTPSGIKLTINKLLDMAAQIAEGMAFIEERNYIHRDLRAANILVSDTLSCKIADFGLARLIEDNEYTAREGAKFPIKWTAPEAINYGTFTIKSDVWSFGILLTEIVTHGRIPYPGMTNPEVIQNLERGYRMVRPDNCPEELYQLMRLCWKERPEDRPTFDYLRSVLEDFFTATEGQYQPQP
Summary of the method: as §2

[7] = molecular target: T7, EGFR (Homo sapiens, UniProt P00533); assay: Kinase inhibition assay (33P transfer), EGFR; conditions: Table 2, kinase inhibition class; read-out: EGFR-1
T7 construct: Kinases are expressed as either kinase domains or full length constructs; made in house
Summary of the method: as §1

[8] = molecular target: T8, Kdr (Homo sapiens, UniProt P35968); assay: Kinase inhibition assay (33P transfer), Kdr; conditions: read-out: KDR-1
T8 construct: Kinases are expressed as either kinase domains or full length constructs; made in house
T8 sequence (P35968 20-1356, species assumed): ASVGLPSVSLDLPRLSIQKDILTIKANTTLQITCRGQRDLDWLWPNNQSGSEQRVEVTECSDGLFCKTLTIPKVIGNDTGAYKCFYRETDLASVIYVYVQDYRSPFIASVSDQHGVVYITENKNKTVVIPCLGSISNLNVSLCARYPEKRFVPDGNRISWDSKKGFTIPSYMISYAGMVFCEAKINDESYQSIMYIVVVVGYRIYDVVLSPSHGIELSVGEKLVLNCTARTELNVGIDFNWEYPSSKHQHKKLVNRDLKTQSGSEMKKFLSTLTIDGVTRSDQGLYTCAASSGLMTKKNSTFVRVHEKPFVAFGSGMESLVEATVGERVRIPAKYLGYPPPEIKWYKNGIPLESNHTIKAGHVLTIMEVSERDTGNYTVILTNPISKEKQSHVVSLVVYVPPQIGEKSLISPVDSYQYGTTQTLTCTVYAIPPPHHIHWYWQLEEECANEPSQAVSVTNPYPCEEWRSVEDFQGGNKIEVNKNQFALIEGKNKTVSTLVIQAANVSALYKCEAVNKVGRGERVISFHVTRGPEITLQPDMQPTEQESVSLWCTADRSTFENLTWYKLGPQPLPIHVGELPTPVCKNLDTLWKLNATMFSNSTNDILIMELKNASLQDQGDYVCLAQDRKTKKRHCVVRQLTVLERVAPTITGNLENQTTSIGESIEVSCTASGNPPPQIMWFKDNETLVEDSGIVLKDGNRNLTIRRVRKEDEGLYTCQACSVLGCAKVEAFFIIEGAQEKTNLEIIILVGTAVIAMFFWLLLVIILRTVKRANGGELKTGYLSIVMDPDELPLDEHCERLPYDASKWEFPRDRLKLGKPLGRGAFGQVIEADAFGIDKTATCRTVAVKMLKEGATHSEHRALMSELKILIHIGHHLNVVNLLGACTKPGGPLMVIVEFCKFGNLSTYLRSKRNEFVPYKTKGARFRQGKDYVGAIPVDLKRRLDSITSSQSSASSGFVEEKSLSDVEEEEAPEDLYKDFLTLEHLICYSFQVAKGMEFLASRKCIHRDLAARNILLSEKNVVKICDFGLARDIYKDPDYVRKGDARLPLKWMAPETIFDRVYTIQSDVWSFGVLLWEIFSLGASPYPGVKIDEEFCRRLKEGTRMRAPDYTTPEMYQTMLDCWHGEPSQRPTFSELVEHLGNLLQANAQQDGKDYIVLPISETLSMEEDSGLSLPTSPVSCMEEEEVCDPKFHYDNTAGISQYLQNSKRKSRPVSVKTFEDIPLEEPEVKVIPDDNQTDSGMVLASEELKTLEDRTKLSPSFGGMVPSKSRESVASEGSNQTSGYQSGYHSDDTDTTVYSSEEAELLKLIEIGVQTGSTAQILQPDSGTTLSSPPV
Summary of the method: as §2

Compound	IC50 [1]	IC50 [2]	IC50 [3]	IC50 [4]	IC50 [5]	IC50 [6]	IC50 [7]	IC50 [8]	IC50 ([1]; Table 3)	IC50 ([3]; Table 3)	IC50 ([6]; Table 3)	IC50 ([8]; Table 3)
COc1ccc(Nc2ncnc(-n3c(=O)[nH]c4ccccc43)n2)cc1OC [Compound 494]	> 12.4 µM	> 12.4 µM	> 12.4 µM	> 12.4 µM	> 12.4 µM	6.59 to 9.61 µM	6.59 to 9.61 µM	< 1.1 µM				
Nc1nc2ccccc2n1-c1ncnc(Nc2ccc(OC(F)(F)F)cc2)n1 [Compound 647]	> 11.6 µM	> 11.6 µM	> 11.6 µM	> 11.6 µM	> 11.6 µM	> 11.6 µM	1.03 to 6.2 µM	1.03 to 6.2 µM				
CC(C)(C)c1ccc(Nc2ncnc(-n3c(N)nc4ccccc43)n2)cc1 [Compound 525]	6.68 to 9.74 µM	9.74 to 12.5 µM	> 12.5 µM	6.68 to 9.74 µM	> 12.5 µM	6.68 to 9.74 µM	> 12.5 µM	6.68 to 9.74 µM				
COc1cc(Nc2ncnc(Nc3ccc(C(C)=O)cc3)n2)cc(OC)c1OC [Compound 698]	1.01 to 6.07 µM	> 11.4 µM	> 11.4 µM	8.85 to 11.4 µM	> 11.4 µM	< 1.01 µM	6.07 to 8.85 µM	< 1.01 µM				
COC(=O)C(c1ccccc1)c1ncnc(Nc2cc(OC)c(OC)c(OC)c2)n1 (stereo not shown) [Compound 1038]	> 11 µM	> 11 µM	> 11 µM	> 11 µM	> 11 µM	0.975 to 5.85 µM	> 11 µM	> 11 µM				
COc1cc(Nc2ncnc(-n3c(N(C)C)nc4ccccc43)n2)cc(OC)c1OC [Compound 405]		> 10.7 µM		> 10.7 µM	> 10.7 µM		> 10.7 µM		> 10.7 µM	> 10.7 µM	> 10.7 µM	0.949 to 5.69 µM
O=c1[nH]c2ccccc2n1-c1ncnc(Nc2ccc(NS(=O)(=O)c3ccc([N+](=O)[O-])cc3)cc2)n1 [Compound 422]		> 8.92 µM		6.94 to 8.92 µM	0.793 to 4.76 µM		0.793 to 4.76 µM		> 8.92 µM	> 8.92 µM	> 8.92 µM	0.793 to 4.76 µM
CC(C)(C)OC(=O)NCc1cccc(Nc2ncnc(Nc3cc(-c4ccccc4)n[nH]3)n2)c1 [Compound 986]	5.23 to 7.63 µM	0.872 to 5.23 µM	> 9.81 µM	7.63 to 9.81 µM	> 9.81 µM	> 9.81 µM	5.23 to 7.63 µM	0.872 to 5.23 µM				
CC(C)(C)OC(=O)NCc1cccc(Nc2ncnc(Nc3cc(-c4ccco4)n[nH]3)n2)c1 [Compound 985]	5.35 to 7.8 µM	5.35 to 7.8 µM	> 10 µM	5.35 to 7.8 µM	> 10 µM	0.892 to 5.35 µM	0.892 to 5.35 µM	0.892 to 5.35 µM				
O=c1[nH]c2ccccc2n1-c1ncnc(Nc2nccc3ccccc23)n1 [Compound 689]	> 12.7 µM	6.75 to 9.85 µM	1.13 to 6.75 µM	6.75 to 9.85 µM	> 12.7 µM	6.75 to 9.85 µM	1.13 to 6.75 µM	6.75 to 9.85 µM				
COc1cc(Nc2ncnc(-n3ccc4ccc(F)cc43)n2)cc(OC)c1OC [Compound 464]		> 11.4 µM		> 11.4 µM	> 11.4 µM		> 11.4 µM		> 11.4 µM	> 11.4 µM	6.07 to 8.85 µM	1.01 to 6.07 µM
COc1cc(Nc2nc3ccccc3n2-c2ncnc(Nc3cc(OC)c(OC)c(OC)c3)n2)cc(OC)c1 [Compound 399]		> 8.5 µM		> 8.5 µM	6.61 to 8.5 µM		> 8.5 µM		> 8.5 µM	> 8.5 µM	6.61 to 8.5 µM	0.755 to 4.53 µM
CCOC(=O)Cc1ccc(Nc2ncnc(Nc3cc(-c4ccco4)n[nH]3)n2)cc1 [Compound 432]		0.987 to 5.92 µM		> 11.1 µM	> 11.1 µM		0.987 to 5.92 µM		8.63 to 11.1 µM	> 11.1 µM	> 11.1 µM	0.987 to 5.92 µM
COc1cc(Nc2ncnc(Nc3n[nH]c(Nc4ccc(Cl)cc4)n3)n2)cc(OC)c1OC [Compound 1003]	0.851 to 5.11 µM	0.851 to 5.11 µM	5.11 to 7.45 µM	0.851 to 5.11 µM	> 9.58 µM	0.851 to 5.11 µM	5.11 to 7.45 µM	0.851 to 5.11 µM				
COc1cc(Nc2ncnc(-n3c(NCc4ccccn4)nc4ccccc43)n2)cc(OCCN2CCOCC2)c1OC [Compound 507]	> 7.71 µM	> 7.71 µM	> 7.71 µM	6 to 7.71 µM	> 7.71 µM	0.685 to 4.11 µM	> 7.71 µM	< 0.685 µM				
COc1ccc(-c2ncnc(Nc3cc(OC)c(OC)c(OC)c3)n2)cc1OC [Compound 230]	8.78 to 11.3 µM	> 11.3 µM	> 11.3 µM	8.78 to 11.3 µM	> 11.3 µM	1 to 6.02 µM	8.78 to 11.3 µM	< 1 µM				
COc1ccc(Nc2ncnc(-n3c(N)nc4ccccc43)n2)cn1 [Compound 648]	> 13.5 µM	> 13.5 µM	> 13.5 µM	> 13.5 µM	> 13.5 µM	> 13.5 µM	> 13.5 µM	1.2 to 7.18 µM				
COc1cc(Nc2ncnc(-c3cccnc3Cl)n2)cc(OC)c1OC [Compound 1075]	> 12 µM	> 12 µM	> 12 µM	> 12 µM	> 12 µM	> 12 µM	> 12 µM	9.36 to 12 µM				
COc1cc(Nc2ncnc(-c3ccc(NCCCO)nc3)n2)cc(OC)c1OC [Compound 497]	> 10.9 µM	> 10.9 µM	> 10.9 µM	> 10.9 µM	> 10.9 µM	8.49 to 10.9 µM	> 10.9 µM	< 0.97 µM				
COc1cc(Nc2ncnc(-n3c(N[C@H](C)c4ccccc4)nc4ccccc43)n2)cc(OC)c1OC [Compound 1034]	> 9.04 µM	7.03 to 9.04 µM	> 9.04 µM	> 9.04 µM	> 9.04 µM	0.804 to 4.82 µM	> 9.04 µM	< 0.804 µM				

From patent US7074789B2, “Kinase inhibitors” (Amgen Inc., priority 1999, dated 2006)
